Assay results taken from paper PMC7689250, “Synthetic Peptide Libraries Designed From a Minimal Alpha-Helical Domain of AS-48-Bacteriocin Homologs Exhibit Potent Antibacterial Activity” (Frontiers in Microbiology, 2020).
Like-named read-outs stand apart in the source and are kept apart here. Residues, ends and D or L forms follow the SMILES beside them.

Key:
[1] = test system: sheep erythrocytes; assay type: cell-based; settings: red cells of sheep, 1 h
Method in brief: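 Washed defibrinated sheep blood, diluted 1:25 in PBS, incubated 1 h at 37 °C with peptide at the MIC-assay concentrations (sample:blood 1:10). Haemoglobin release read as supernatant absorbance at 450 nm; percent haemolysis normalised to PBS and 10% Triton controls.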

[2] = test system: P. aeruginosa (PAO1); assay type: cell-based, Pseudomonas aeruginosa; settings: for MBC: PAO1
Method in brief: (§1)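 MIC in Mueller-Hinton broth with 1 × 10^6 CFU/mL bacteria, overnight cultures grown first in LB (E. coli, P. aeruginosa, S. aureus) or Todd-Hewitt (S. pyogenes); growth read as OD 600. Library members screened at half the parent peptide MIC; MBC as lowest concentration giving no colonies after plating MIC wells, 37°C overnight.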

[3] = test system: S. pyogenes (M1); assay type: cell-based, Streptococcus pyogenes; settings: for MBC: M1; for MIC: M1, 16 h
Method in brief: as §1

[4] = test system: GFP-expressing E. coli strain BL21; test: Live imaging of GFP leakage; assay type: cell-based, Escherichia coli; settings: 16 μM peptide, 8 h, 37°C, images every 10 min
Method: To observe bacterial cell death in the presence of peptide in real time, fluorescence microscopy was employed using GFP-expressing E. coli strain BL21. MIC assays were conducted against BL21-GFP to determine the peptide concentration used for microscopy experiments. The peptide was suspended in PBS and added to diluted bacterial cells. GFP-expressing E. coli in the presence of peptide were imaged on the Eclipse Ti-E inverted microscope (Nikon) using GFP and DIC channels for 8 h at 37°C, with images taken every 10 min ([Fields et al., 2020]). Syn-xiamencin-2, a peptide with no detectable antimicrobial activity below 128 μM was also evaluated as a negative peptide candidate control.

[5] = test system: S. aureus (USA300); assay type: cell-based, Staphylococcus aureus; settings: for MBC: USA300; for MIC: USA300, 16 h
Method in brief: as §1

[6] = test system: E. coli (BL21); assay type: cell-based, Escherichia coli
Method in brief: as §1

[7] = E. coli BL21, running text b43, unit printed nm

MIC [3] [µM]	MIC [5] [µM]	MIC ([6]; BL21, 16 h) [µM]	MIC ([2]; PAO1, 16 h) [µM]	SMILES	Percent Hemolysis [1] [%]	MIC ([2]; P. aeruginosa PAO1, broth microdilution, Mueller-Hinton broth, 1 × 10^6 CFU/mL, 16 h, OD600, triplicate) [µM]	MBC [2] [µM]	MBC [3] [µM]	GFP leakage / change in fluorescence [4]	MBC [5] [µM]	MBC ([6]; BL21) [µM]	MIC ([6]; BL21) [µM]	MBC [6, 7]	MIC [6, 7]
16	64	2	8	CC[C@H](C)[C@H](NC(=O)[C@H](Cc1ccc(O)cc1)NC(=O)[C@H](CCCCN)NC(=O)[C@H](CCCCN)NC(=O)[C@H](CC(C)C)NC(=O)[C@H](CCC(=O)O)NC(=O)[C@H](CCCCN)NC(=O)[C@H](Cc1c[nH]c2ccccc12)NC(=O)[C@@H](NC(=O)[C@H](CCCNC(=N)N)NC(=O)[C@H](CCC(=O)O)NC(=O)[C@H](CO)NC(=O)CNC(=O)[C@H](C)N)[C@@H](C)CC)C(=O)N[C@@H](CCCCN)C(=O)N[C@@H](CCCCN)C(=O)NCC(=O)N[C@@H](CCCCN)C(=O)N[C@@H](CCCCN)C(=O)N[C@H](C(=O)N[C@H](C(=O)N[C@@H](CCCNC(=N)N)C(=O)N[C@@H](C)C(=O)N[C@@H](C)C(=O)N[C@@H](Cc1c[nH]c2ccccc12)C(=O)O)[C@@H](C)CC)C(C)C [Syn-enterocin-24] (H-AGSERIWKELKKYIKKGKKVIRAAW-OH; N-terminus and C-terminus assumed)	10.5		16	16		>128	2			
0.25	64	4	16	CC[C@H](C)[C@H](NC(=O)[C@H](CCCCN)NC(=O)[C@H](CCCCN)NC(=O)[C@H](CCCCN)NC(=O)[C@H](CC(C)C)NC(=O)[C@H](CCCNC(=N)N)NC(=O)[C@H](CCC(N)=O)NC(=O)[C@H](Cc1ccccc1)NC(=O)[C@@H](NC(=O)[C@@H](NC(=O)[C@H](CCC(=O)O)NC(=O)[C@H](CCCCN)NC(=O)CNC(=O)[C@H](C)N)[C@@H](C)O)[C@@H](C)CC)C(=O)N[C@@H](CCC(N)=O)C(=O)N[C@@H](CCC(=O)O)C(=O)N[C@@H](CCCCN)C(=O)NCC(=O)N[C@@H](CCCCN)C(=O)N[C@@H](CCCNC(=N)N)C(=O)N[C@@H](C)C(=O)N[C@H](C(=O)N[C@H](C(=O)N[C@@H](Cc1c[nH]c2ccccc12)C(=O)N[C@@H](Cc1c[nH]c2ccccc12)C(=O)O)[C@@H](C)CC)[C@@H](C)O [Syn-larvacin-67] (H-AGKETIFQRLKKKIQEKGKRATIWW-OH; N-terminus and C-terminus assumed)	16.3		32	0.25		64	4			
4	32	1	4	CC[C@H](C)[C@H](NC(=O)[C@H](CCC(=O)O)NC(=O)[C@H](CCCNC(=N)N)NC(=O)[C@H](CCCNC(=N)N)NC(=O)[C@H](CC(C)C)NC(=O)[C@H](Cc1ccc(O)cc1)NC(=O)[C@H](CCCCN)NC(=O)[C@H](C)NC(=O)[C@@H](NC(=O)[C@@H](NC(=O)[C@H](CCC(N)=O)NC(=O)[C@H](CCCNC(=N)N)NC(=O)[C@H](Cc1c[nH]c2ccccc12)NC(=O)[C@H](C)N)[C@@H](C)O)[C@@H](C)CC)C(=O)N[C@@H](CCCNC(=N)N)C(=O)N[C@@H](CCCCN)C(=O)N[C@@H](CCCNC(=N)N)C(=O)NCC(=O)N[C@@H](CCCNC(=N)N)C(=O)N[C@@H](CCCCN)C(=O)N[C@@H](C)C(=O)N[C@H](C(=O)N[C@H](C(=O)N[C@@H](C)C(=O)N[C@@H](Cc1c[nH]c2ccccc12)C(=O)O)[C@@H](C)CC)C(C)C [Syn-sordellicin-18] (H-AWRQTIAKYLRREIRKRGRKAVIAW-OH; N-terminus and C-terminus assumed)	14.1		8	4		32	1			
4	16	16	>128	CC[C@H](C)[C@H](NC(=O)[C@H](Cc1ccccc1)NC(=O)[C@H](C)NC(=O)[C@H](CCCCN)NC(=O)[C@H](CCCCN)NC(=O)CNC(=O)[C@H](CCCNC(=N)N)NC(=O)[C@H](CCCCN)NC(=O)[C@H](CCCNC(=N)N)NC(=O)[C@H](CC(C)C)NC(=O)[C@H](CCC(=O)O)NC(=O)[C@H](CCC(=O)O)NC(=O)[C@H](CCCCN)NC(=O)[C@H](CC(C)C)NC(=O)[C@H](Cc1ccc(O)cc1)NC(=O)[C@H](CC(C)C)NC(=O)[C@@H](NC(=O)[C@H](CC(C)C)NC(=O)[C@H](C)NC(=O)[C@H](CCC(N)=O)NC(=O)[C@H](CCCNC(=N)N)NC(=O)CNC(=O)[C@H](C)N)[C@@H](C)O)C(=O)N[C@@H](Cc1c[nH]c2ccccc12)C(=O)N[C@@H](Cc1c[nH]c2ccccc12)C(=O)O [Syn-xiamencin-57] (H-AGRQALTLYLKEELRKRGKKAFIWW-OH; N-terminus and C-terminus assumed)	17.0		>128	8		32	16			
4	>128	16	128	CC[C@H](C)[C@H](NC(=O)[C@H](Cc1ccccc1)NC(=O)[C@H](C)NC(=O)[C@H](CCCCN)NC(=O)[C@H](CCCCN)NC(=O)CNC(=O)[C@H](CCCNC(=N)N)NC(=O)[C@H](CCCCN)NC(=O)[C@H](CCCNC(=N)N)NC(=O)[C@H](CC(C)C)NC(=O)[C@H](Cc1ccc(O)cc1)NC(=O)[C@H](CCC(=O)O)NC(=O)[C@H](CCCCN)NC(=O)[C@H](CC(C)C)NC(=O)[C@H](CCC(=O)O)NC(=O)[C@H](CC(C)C)NC(=O)[C@@H](NC(=O)[C@H](CC(C)C)NC(=O)[C@H](CCCCN)NC(=O)[C@H](CCC(N)=O)NC(=O)[C@H](CCCNC(=N)N)NC(=O)CNC(=O)[C@H](C)N)[C@@H](C)O)C(=O)N[C@@H](C)C(=O)N[C@@H](Cc1c[nH]c2ccccc12)C(=O)O [Syn-xiamencin-83] (H-AGRQKLTLELKEYLRKRGKKAFIAW-OH; N-terminus and C-terminus assumed)	10.7		>128	4		>128	32			

SMILES	MIC [3] [µM]	MIC [5] [µM]	MIC ([6]; BL21, 16 h) [µM]	MIC ([2]; PAO1, 16 h) [µM]	Percent Hemolysis [1] [%]	MIC ([2]; P. aeruginosa PAO1, broth microdilution, Mueller-Hinton broth, 1 × 10^6 CFU/mL, 16 h, OD600, triplicate) [µM]	MBC [2] [µM]	MBC [3] [µM]	GFP leakage / change in fluorescence [4]	MBC [5] [µM]	MBC ([6]; BL21) [µM]	MIC ([6]; BL21) [µM]	MBC [6, 7]	MIC [6, 7]
CC[C@H](C)[C@H](NC(=O)[C@H](CCCNC(=N)N)NC(=O)[C@H](CCC(N)=O)NC(=O)[C@H](Cc1c[nH]c2ccccc12)NC(=O)CNC(=O)[C@H](C)N)C(=O)N[C@@H](CCCCN)C(=O)N[C@@H](C)C(=O)N[C@@H](Cc1ccc(O)cc1)C(=O)N[C@@H](CC(C)C)C(=O)N[C@@H](CCCNC(=N)N)C(=O)N[C@@H](CCCNC(=N)N)C(=O)N[C@@H](CCC(=O)O)C(=O)N[C@H](C(=O)N[C@@H](CCCNC(=N)N)C(=O)N[C@@H](CCCCN)C(=O)N[C@@H](CCCNC(=N)N)C(=O)NCC(=O)N[C@@H](CCCNC(=N)N)C(=O)N[C@@H](CCCCN)C(=O)N[C@@H](C)C(=O)N[C@H](C(=O)N[C@H](C(=O)N[C@@H](C)C(=O)N[C@@H](Cc1c[nH]c2ccccc12)C(=O)O)[C@@H](C)CC)C(C)C)[C@@H](C)CC [Syn-sordellicin-43] (H-AGWQRIKAYLRREIRKRGRKAVIAW-OH; N-terminus and C-terminus assumed)	2	32	1		11.2	2	4	4	significant decrease in fluorescence	32	1			
CC[C@H](C)[C@H](NC(=O)[C@H](CCCCN)NC(=O)[C@H](CCCCN)NC(=O)CNC(=O)[C@H](CCC(=O)O)NC(=O)[C@H](CCC(N)=O)NC(=O)[C@@H](NC(=O)[C@@H](NC(=O)[C@H](CCCCN)NC(=O)[C@H](CCCCN)NC(=O)[C@H](CC(C)C)NC(=O)[C@H](CCCNC(=N)N)NC(=O)[C@H](CCC(N)=O)NC(=O)[C@H](Cc1ccccc1)NC(=O)[C@@H](NC(=O)[C@H](CCCCN)NC(=O)[C@H](CCC(=O)O)NC(=O)[C@@H](NC(=O)[C@H](Cc1c[nH]c2ccccc12)NC(=O)[C@H](C)N)[C@@H](C)O)[C@@H](C)CC)[C@@H](C)O)[C@@H](C)CC)C(=O)N[C@@H](C)C(=O)N[C@@H](CCCCN)C(=O)N[C@@H](CCCNC(=N)N)C(=O)N[C@@H](C)C(=O)N[C@@H](Cc1c[nH]c2ccccc12)C(=O)O [Syn-larvacin-39] (H-AWTEKIFQRLKKTIQEGKKIAKRAW-OH; N-terminus and C-terminus assumed)	2	1	<0.0156	16	14.4		64	4	significant decrease in fluorescence	4		0.0156	below 15.6 nM	below 15.6 nM
